Target: T1, rat TRPM8 channel (rTRPM8) (Rattus norvegicus, UniProt Q8R455)
T1 construct: expressed in transfected cells
Test: Ca2+ microfluorimetry, menthol-induced Ca2+ entry in HEK293 cells overexpressing rTRPM8
Assay type: cell-based
Conditions: for IC50: rTRPM8, HEK293, activation by 100 µM menthol
Experimental: The diastereomeric 1,4,4-trisubstitutes β-lactams were evaluated as modulators of the TRPM8 channel by calcium microfluorimetry assays. These assays use a Human Embryonic Kidney 293 (HEK293) cell line that stably overexpressed rat TRPM8 channel (rTRPM8). […] Three separated experiments in triplicate were used.
The initial biological evaluation of this series of 1,3,4,4-tetrasubstituted β-lactams was performed by calcium microfluorimetry assays using the indicated HEK293 cell line overexpressing rTRPM8 channels.
Calcium fluorometry, Patch-Clamp assays and in vivo experiments were performed using the methodology previously described for TRPM8 [35] or TRPM3 [61]. In the Patch -Clamp experiments, the intracellular pipette solution contained (in mM) 140 KCl, 5 EGTA, and 10 mM HEPES, adjusted to pH 7.2 with KOH, and the extracellular solution contained (in mM) 140 NaCl, 2 CaCl2, 1 MgCl2, 10 D-glucose and 10 HEPES, adjusted to pH 7.4 with NaOH. Selectivity against TRPV1, TRPV3, TRPA1 and ASIC3 was subcontracted to Eurofins-CEREP or Eurofins-PANLABS (see ref. [35] for more details).

T1 sequence (Q8R455 whole entry): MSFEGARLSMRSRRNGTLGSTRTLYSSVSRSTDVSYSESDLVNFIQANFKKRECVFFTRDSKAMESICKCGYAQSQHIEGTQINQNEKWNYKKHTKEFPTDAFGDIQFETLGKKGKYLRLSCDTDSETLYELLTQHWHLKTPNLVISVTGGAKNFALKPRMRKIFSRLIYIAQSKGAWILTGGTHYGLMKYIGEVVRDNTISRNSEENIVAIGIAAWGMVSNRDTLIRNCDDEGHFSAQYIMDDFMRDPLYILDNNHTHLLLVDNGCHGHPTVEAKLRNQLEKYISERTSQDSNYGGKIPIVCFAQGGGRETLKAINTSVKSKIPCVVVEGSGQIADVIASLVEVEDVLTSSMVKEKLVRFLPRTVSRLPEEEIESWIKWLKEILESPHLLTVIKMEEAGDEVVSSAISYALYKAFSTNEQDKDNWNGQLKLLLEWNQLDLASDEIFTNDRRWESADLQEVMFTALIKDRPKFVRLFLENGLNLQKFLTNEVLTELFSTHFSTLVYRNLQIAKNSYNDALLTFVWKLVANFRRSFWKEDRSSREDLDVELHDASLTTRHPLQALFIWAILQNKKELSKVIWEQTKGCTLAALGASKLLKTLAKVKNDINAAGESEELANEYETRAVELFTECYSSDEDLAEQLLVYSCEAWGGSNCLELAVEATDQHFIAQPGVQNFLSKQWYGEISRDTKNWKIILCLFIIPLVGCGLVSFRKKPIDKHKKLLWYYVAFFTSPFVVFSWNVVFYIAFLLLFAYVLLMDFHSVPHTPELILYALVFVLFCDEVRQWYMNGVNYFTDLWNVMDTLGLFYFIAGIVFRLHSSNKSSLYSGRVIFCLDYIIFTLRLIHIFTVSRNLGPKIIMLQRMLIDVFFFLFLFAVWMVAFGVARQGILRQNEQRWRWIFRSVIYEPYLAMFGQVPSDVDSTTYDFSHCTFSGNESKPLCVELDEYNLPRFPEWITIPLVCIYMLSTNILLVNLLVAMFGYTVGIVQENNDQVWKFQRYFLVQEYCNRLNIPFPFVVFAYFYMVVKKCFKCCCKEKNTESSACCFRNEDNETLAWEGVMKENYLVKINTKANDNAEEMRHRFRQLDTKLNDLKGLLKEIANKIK

Row | SMILES | IC50 (Table 1) | IC50 (Table 3) | other results
1 | COC(=O)C1(Cc2ccccc2)CC(=O)N1C[C@H](Cc1ccccc1)N(Cc1ccccc1)Cc1ccccc1 (stereo partly drawn) [2a,b] | 0.15 µM |  | 
2 | CC(C)CNC(=O)C1(Cc2ccccc2)CC(=O)N1C[C@H](Cc1ccccc1)N(Cc1ccccc1)Cc1ccccc1 (stereo partly drawn) [4a,b] | 0.71 ± 1.2 µM |  | 
3 | O=C1CC(Cc2ccccc2)(C(=O)NCc2ccccc2)N1C[C@H](Cc1ccccc1)N(Cc1ccccc1)Cc1ccccc1 (stereo partly drawn) [5a,b] | 0.71 ± 1.27 µM |  | 
4 | O=C1CC(Cc2ccccc2)(C(=O)NCc2ccc(Cl)c(Cl)c2)N1C[C@H](Cc1ccccc1)N(Cc1ccccc1)Cc1ccccc1 (stereo partly drawn) [6a,b] |  |  | antagonist activity (relative to benzylamide 5a,b): notable reduction in antagonist activity
5 | O=C1CC(Cc2ccccc2)(C(=O)Nc2cccnc2)N1C[C@H](Cc1ccccc1)N(Cc1ccccc1)Cc1ccccc1 (stereo partly drawn) [7a,b] | 11.6 ± 1.3 µM |  | 
6 | O=C1CC(Cc2ccccc2)(C(=O)NCc2ccccn2)N1C[C@H](Cc1ccccc1)N(Cc1ccccc1)Cc1ccccc1 (stereo partly drawn) [8a,b] | 1.99 ± 1.26 µM |  | 
7 | O=C1CC(Cc2ccccc2)(C(=O)NCc2cccnc2)N1C[C@H](Cc1ccccc1)N(Cc1ccccc1)Cc1ccccc1 (stereo partly drawn) [9a,b] | 10.7 ± 1.38 µM |  | 
8 | O=C1C[C@@]2(Cc3ccccc3)C(=O)N[C@@H](Cc3ccccc3)CN12 [Compound 11a, (3S,6S)-3,6-dibenzyl-1,4-diazabicyclo[4.2.0]octane-5,8-dione] |  |  | inhibition at 50 µM (HEK293, at 50 μM): < 50%
9 | C[C@@H]1C(=O)N(C[C@H](Cc2ccccc2)NCc2ccccc2)[C@]1(Cc1ccccc1)C(=O)OC(C)(C)C [Compound 37, 4S-Benzyl-4-(terc-butoxy)carbonyl-3S-methyl-1-[(2’S-N-benzylamino-3’-phenyl)prop-1′-yl]-2-oxoazetidine] |  | 3.06 ± 1.25 µM | 
10 | C[C@@H]1C(=O)N(C[C@H](Cc2ccccc2)NCc2cccc(-c3ccccc3)c2)[C@]1(Cc1ccccc1)C(=O)OC(C)(C)C [Compound 40, 4S-Benzyl-4-(terc-butoxy)carbonyl-3S-methyl-1-[(2’S-N-(3′′-biphenyl)methylamino-3’-phenyl)prop-1′-yl]-2-oxoazetidine] |  | 6.36 ± 1.41 µM | 
11 | C[C@@H]1C(=O)N(C[C@H](Cc2ccccc2)NCc2ccc(-c3ccccc3)cc2)[C@]1(Cc1ccccc1)C(=O)OC(C)(C)C [Compound 41, 4S-Benzyl-4-terc-butoxycarbonyl-3S-methyl-1-[(2’S-N-(4′′-biphenyl)methylamino-3’-phenyl)prop-1′-yl]-2-oxoazetidine] |  | 9.26 ± 1.41 µM | 
12 | CC(C)CNC(=O)[C@]1(Cc2ccccc2)[C@H](C)C(=O)N1C[C@H](Cc1ccccc1)NCc1cccc(-c2ccccc2)c1 [Compound 42, 4S-Benzyl-4-[N-(iso-butyl)-carbamoyl]-3S-methyl-1-[(2′S-(3′′-phenylbencil)amino-3′-phenyl)prop-1′-yl]-2-oxoazetidine] |  | 2.19 ± 1.36 µM | 
13 | CC(C)CNC(=O)[C@]1(Cc2ccccc2)[C@H](C)C(=O)N1C[C@H](Cc1ccccc1)NCc1cccc(F)c1 [Compound 43, 4S-Benzyl-4-[N-(iso-butyl)carbamoyl]-3S-methyl-1-[(2′S-(3′′-fluorobenzyl)amino-3′-phenyl)prop-1′-yl]-2-oxoazetidine] |  | 4.03 ± 1.35 µM | 
14 | CC(C)CNC(=O)[C@]1(Cc2ccccc2)[C@H](C)C(=O)N1C[C@H](Cc1ccccc1)NCc1cccc(Br)c1 [Compound 44, 4S-Benzyl-4-[N-(iso-butyl)carbamoyl]-3S-methyl-1-[(2′S-(3′′-bromobenzyl)amino-3′-phenyl)prop-1′-yl]-2-oxoazetidine] |  | 3.27 ± 1.31 µM | 
15 | CC(C)CNC(=O)[C@]1(Cc2ccccc2)[C@H](C)C(=O)N1C[C@H](Cc1ccccc1)NCc1ccc2ccccc2c1 [Compound 45, 4S-Benzyl-4-[N-(iso-butyl)-carbamoyl]-3S-methyl-1-[(2′S-(2′′-naphtylmethyl)amino-3′-phenyl)prop-1′-yl]-2-oxoazetidine] |  | 3.56 ± 1.4 µM | 

From publication PMC10573892, “β-Lactam TRPM8 Antagonists Derived from Phe-Phenylalaninol Conjugates: Structure–Activity Relationships and Antiallodynic Activity” (International Journal of Molecular Sciences, 2023)
